Residues, ends and D or L forms follow the SMILES beside them. *: point of attachment. Palmitoyl = CCCCCCCCCCCCCCCC(=O)*
Key:
[1] = system: Staphylococcus epidermidis; test: Adherence of Staphylococcus epidermidis in keratinocytes (HaCaT) in competition with S. aureus bioparticles; type: cell-based; conditions: 50 μg/ml, 24 h, basal = 0
Description: After that treatment, cells are washed with phosphate-buffered saline (PBS, Sigma) and are then incubated with a solution of Staphylococcus epidermidis (ATCC®12228™, Culture Collections) treated with green-fluorescence calcein AM (Life technologic) and Alexa Fluor 594™ Bioparticles Staphylococcus aureus (ThermoFisher) in PBS for 30 minutes at 37° C. and protected from light. At the end of the incubation period, cells are washed with PBS and fixed in 4% (v/v) paraformaldehyde (PFA, Sigma) for 30 minutes. After rinsing with PBS, the nuclei are stained with Hoechst 33342, trihydrochloride trihydrate (ThermoFisher) in PBS for 10 minutes before analysis.
Cellular imaging is performed by fluorescence microscopy using the Operetta® High Content Imaging System (PerkinElmer). From each fluorescence image, Staphylococcus epidermidis is quantified as a number of spots and normalized against the number of keratinocyte nuclei and the total bacteria number (understood as the addition of detected S. epidermidis spots and S. aureus bioparticles). Each value obtained is normalized respect to basal conditions (non-treated keratinocytes). An image is taken in three different fields per well. 12 representative images from each condition are analyzed with Harmony software (PerkinElmer).
The normalized percentage of Staphylococcus epidermidis respect to basal conditions in treated keratinocytes is represented in Table 17.

[2] = system: Reconstructed Human Epidermis (RHE); test: Lipidomic profile (UPLC-MS) of in vitro epidermal model; type: cell-based; conditions: 50 μg/ml, 24 hours, vs basal conditions
Description: The SkinEthic human tissue models (EpiSkin™) are removed from their agarose-nutrient solution in the multiwell plate immediately after arrival and are placed in a 6-well plate in which each well has previously been filled with SkinEthic Growth Medium (EpiSkin™). After overnight incubation at 37° C., 5% CO2, Reconstructed Human Epidermis (RHE) are treated with 50 μg/ml of peptides Ac-Glu-Glu-Met-Gln-Arg-Arg-NH2 (PEP-1), Ac-Glu-Glu-Met-Gln-Arg-Arg-Ala-NH2 (PEP-2) or Ac-Glu-Glu-Met-Gln-Arg-Arg-Ala-Asp-NH2 (PEP-3) or medium (basal conditions) for 24 hours at 37° C. and 5% CO2. After the 24 hours treatment, RHE are frozen and stored at −20° C. Each treatment is applied to five RHE per condition.
Epidermal membrane model samples are thawed and removed from the inserts using a scalpel and transferred to homogenization tubes. Samples are mixed with sodium chloride (50 mM) and chloroform/methanol (2/1) (v:v) and homogenized. The extraction solvent is spiked with metabolites not detected in unspiked human serum extracts. After homogenizing the samples, extracts are incubated for 1 hour at −20° C. and centrifuged at 18,000×g for 15 minutes. The organic phase is then collected and dried under vacuum. Dried extracts are finally reconstituted in acetonitrile/isopropanol (1/1) (v:v), centrifuged at 18,000×g for 5 minutes and transferred to vials for UPLCs-MS analysis.
All data are processed using the TargetLynx™ application manager for MassLynx™ 4.1 software (Waters Corp., Milford, USA). A set of predefined retention time, mass-to-charge ratio pairs, Rt-m/z, corresponding to metabolites included in the analysis are fed into the program. Associated extracted ion chromatograms (mass tolerance window=0.05 Da) are then peak-detected and noise-reduced in both the LC and MS domains such that only true metabolite related features are processed by the software. A list of chromatographic peak areas is then generated for each sample injection and value respect to basal conditions is calculated.
Average of five values obtained for each peptide in relation to those obtained for basal conditions (without peptide in the medium) are shown in Table 11.

[3] = system: Nuclear Factor Kappa B subunit 1 (NFKB1); test: Innate immune response gene expression in HEKa, real time PCR array; type: cell-based, human; conditions: 50 μg/ml, 24 h
Description: HEKa cells (Life Technologies) are seeded at 6.0×10^5 cells/well in 6-well plates and incubated in culture medium Epillfe™ with defined Growth Supplement (EDGS, Life Technologies), at 37° C. in a water-saturated atmosphere of 95% air and 5% CO2. After 24 hours of incubation under these conditions, medium is removed and cells are incubated with 50 μg/ml (w/v) of a peptide of the invention (see Table 16) in fresh culture medium keeping two wells where HEKa cells are incubated with medium only (basal conditions) at 37° C. and 5% CO2.
After 24 h of incubation, the cells are lysed directly in the wells following the protocol described on the RNeasy™ Mini kit (Qiagen) according to the manufacturer's protocol. The lysed cells are homogenized and the RNases are inactivated. The genomic DNA is removed from the samples by using gDNA Eliminator spin columns (Qiagen). Then the samples are passed through special RNA binding columns (Qiagen) and, after several microcentrifugation washes to eliminate contaminants and impurities, the purified RNA is eluted with 50 μl of ultrapure water. Quantification and analysis of purity of RNA samples are performed after RNA elution with a biophotometer (Eppendorf). 1 μg of high-quality RNA is retrotranscribed with iScript™ advanced (BioRad) in a final volume of 20 μl·Complete reaction mix is incubated in a thermal cycler (Eppendorf) at 42° C. for 30 minutes, and the reactions are stopped at 85° C. for 5 minutes. Complementary DNA is amplified by qPCR in a real-time PCR thermocycler (BioRad) using SYBR®Green supermix (BioRad) and a customized plate for use with SYBR®Green (BioRad). SYBR®Green binds to double-stranded DNA molecules and emits fluorescence which is quantified and is proportional to the amount of the product in the PCR reaction. Cycling conditions in BioRad CFX96™ instrument are 95° C. for 3 minutes, followed by 40 cycles of denaturing at 95° C. for 5 seconds, annealing and elongation at 60° C. for 30 seconds. GAPDH (Glyceraldehyde 3-phosphate dehydrogenase), TBP (TATA box binding protein) and HRPT1 (hypoxanthine phosphoribosyltransferase 1) are used as endogenous controls. Fold change relative to the expression of the sample genes and reference genes is calculated using normalized expression (ΔΔ(Ct)) method with default threshold values using CFX Manager Software (BioRad).
Genes analyzed are Chemokine (C-C motif) Ligand 5 (CCL5), Myeloid Differentiation primary response gene 88 (MyD88), Nuclear Factor Kappa B subunit 1 (NFKB1) and interferon Regulatory Factor 3 (IRF3).

[4] = system: Claudin 1 (CLDN1); test: Tight junction gene expression in HEKa, real time PCR array; conditions: 50 μg/ml, 24 hours
Description: HEKa cells (Life Technologies) are seeded at 6.0×10^5 cells/well in 6-well plates and incubated in culture medium Epilife™ with defined Growth Supplement (EDGS, Life Technologies) at 37° C. in a water-saturated atmosphere of 95% air and 5% CO2. After 24 hours of incubation under these conditions, medium is removed and cells are incubated with 50 μg/ml of a peptide of the invention (see Table 12) in fresh culture medium, except for two wells where HEKa cells are incubated with medium only (basal conditions), at 37° C. and 5% CO2.
After 24 hours of incubation, the cells are lysed directly in the wells following the protocol described on the RNeasy™ Mini kit (Qiagen) according to the manufacturer's protocol. The lysed cells are homogenized and the Rnases are inactivated. The genomic DNA is removed from the samples by using gDNA Eliminator spin columns (Qiagen). […] Quantification and analysis of purity of RNA samples are performed after RNA elution with a biophotometer (Eppendorf). […] SYBR Green binds to double-stranded DNA molecules and emits fluorescence which is quantified and is proportional to the amount of the product in the PCR reaction. […] Fold change relative to the expression of the sample genes and reference genes is calculated using normalized expression (ΔΔ(Ct)) method with default threshold values using CFX Manager Software (BioRad).

[5] = system: tight junction (TJ) barrier in reconstructed human epidermis (RHE); test: TJ permeability assay, biotin dye penetration in RHE with SDS; type: cell-based; conditions: 24 hours, treatment from dermal side
Description: TJ permeability assay using surface biotinylation technique was performed in incubated reconstructed human epidermis (RHE) with EZ-UN Sulfo-NHS-LC-LC-Biotin from the dermal side. The aim of this study is to investigate the ability of peptides of the invention to enhance the barrier function by inhibiting diffusion of the dye through stratum granulosum in presence of sodium dodecyl sulfate (SDS) which causes functional deterioration of TJs.
SkinEthic human tissue models (EpiSkin) are removed from their agarose-nutrient solution in a multiwell plate immediately after arrival and are placed in a 6-well plate in which each well has previously been filled with SkinEthic Growth Medium (EpiSkin). After overnight incubation at 37° C., 5% CO2, tissue models are treated with 50 μg/ml of peptide Ac-Glu-Glu-Met-Gln-Arg-Arg-Ala-NH2 (PEP-2) and a 0.02 mg/ml sodium dodecyl sulfate (SDS, Sigma) solution in growth medium, (1 ml/well). […]
Microscopical observations are performed with a Zeiss fluorescence microscope and photographs of each condition are taken with the associated camera. Fluorescence images of biotin are quantified as the product of its area and the intensity mean value of channel ‘EGFP’ Green (excitation: 488 nm and emission: 509 nm) and normalized by basal conditions. At least 12 representative images from each condition are collected and analyzed with the ZEN software (Zeiss). […]

[6] = system: stratum corneum barrier in reconstructed human epidermis (RHE); test: Toluidine blue diffusion assay in RHE with SDS; type: cell-based; set-up: key: 4: Strong; 3: Clear; 2: Moderate; 1: Slight; conditions: 24 h, SDS 0.02 mg/ml on top layer, peptide 50 μg/ml + SDS
Description: The SkinEthic human tissue models (EpiSkin) are removed from their agarose-nutrient solution in the multiwell plate immediately after arrival and are placed in a 6-well plate in which each well has previously been filled with SkinEthic Growth Medium (EpiSkin). After overnight incubation at 37° C., 5% CO2, the top layer of tissue model is treated with 100 μl of a 50 μg/ml solution of peptide Ac-Glu-Glu-Met-Gln-Arg-Arg-Ala-NH2 (PEP-2) in a 0.02 mg/ml sodium dodecyl sulfate (SDS, Sigma) solution in growth medium and dermal side of tissue model is treated with 1 ml of a 50 μg/ml solution of the same peptide in growth medium. The top layer and dermal side of a tissue model is treated with growth medium as basal condition. In another tissue model, its top layer is treated with a 0.02 mg/ml SDS solution in growth medium while its dermal side is treated with growth medium alone, both in absence of peptide, for its use as a positive control. All incubations are performed at 37° C. and 5% CO2 for 24 h.
After the 24-hours treatment, the top layer of tissue models are further treated with 200 μl of methanol for 2 min at room temperature and, after that, they are rinsed twice with 200 μl of phosphate-buffered saline (PBS, Sigma). […] At least 12 representative images from each condition are collected and scored according to the ranking described in Table 14. […]

With “Ac-EEMQRR-NH2 [PEP-1, Ac-Glu-Glu-Met-Gln-Arg-Arg-NH2]” the “S. epidermidis (%), normalized percentage respect to basal conditions” value [1] was 13.63. %, the “Cer_AP48 N-(alpha-hydroxyacyl) phytosphingosines” value [2] was 1.21 fold change and the “Cer_NP48 N-acyl phytosphingosines” value [2] was 1.21 fold change. The “Cer_NP49 N-acyl phytosphingosines” value [2] was 1.17 fold change, the “Cer_NP50 N-acyl phytosphingosines” value [2] was 1.18 fold change and the “Cer_NP51 N-acyl phytosphingosines” value [2] was 1.44 fold change. For the same compound, the “Cer_NS50 N-acyl sphingosines” value [2] was 1.20 fold change, the “Cer_NS51 N-acyl sphingosines” value [2] was 1.14 fold change and the “Cer_NS52 N-acyl sphingosines” value [2] was 1.35 fold change. For the same compound, the “Cer_NdS47 N-acyl dihydrosphingosines” value [2] was 1.14 fold change, the “Cer_NdS48 N-acyl dihydrosphingosines” value [2] was 1.21 fold change and the “Cer_NdS49 N-acyl dihydrosphingosines” value [2] was 1.38 fold change. The “Cer_NdS50 N-acyl dihydrosphingosines” value [2] was 1.42 fold change and the “NFKB1 fold induction respect to basal conditions” value [3] was 2.59.

In the case of “Ac-EEMQRKAD-NH2 [PEP-14, Ac-Glu-Glu-Met-Gln-Arg-Lys-Ala-Asp-NH2]”, the “S. epidermidis (%), normalized percentage respect to basal conditions” value [1] is reported as 22.18%, the “CLDN1 fold induction respect to basal conditions” value [4] is reported as 2.59 and the “NFKB1 fold induction respect to basal conditions” value [3] is reported as 2.59.

With `CCCCCCCCCCCCOS(=O)(=O)[O-].[Na+]` [SDS, sodium dodecyl sulfate, reference compound] the “Fold change with respect to basal condition (biotin fluorescence)” value [5] was 1.90 and the “Total score (Toluidine Blue staining)” value [6] was 4.

For “Ac-EEMQRRAD-NH2 [PEP-3, Ac-Glu-Glu-Met-Gln-Arg-Arg-Ala-Asp-NH2]”, the “S. epidermidis (%), normalized percentage respect to basal conditions” value [1] was 11.46%, the “Cer_AP48 N-(alpha-hydroxyacyl) phytosphingosines” value [2] was 1.15 fold change and the “Cer_NP48 N-acyl phytosphingosines” value [2] was 1.19 fold change. The “Cer_NP49 N-acyl phytosphingosines” value [2] was 1.14 fold change, the “Cer_NP50 N-acyl phytosphingosines” value [2] was 1.30 fold change and the “Cer_NP51 N-acyl phytosphingosines” value [2] was 1.24 fold change. The “Cer_NS50 N-acyl sphingosines” value [2] was 1.14 fold change, the “Cer_NS51 N-acyl sphingosines” value [2] was 1.10 fold change and the “Cer_NS52 N-acyl sphingosines” value [2] was 1.30 fold change. For the same compound, the “Cer_NdS47 N-acyl dihydrosphingosines” value [2] was 1.20 fold change, the “Cer_NdS48 N-acyl dihydrosphingosines” value [2] was 1.34 fold change and the “Cer_NdS49 N-acyl dihydrosphingosines” value [2] was 1.43 fold change. For the same compound, the “Cer_NdS50 N-acyl dihydrosphingosines” value [2] was 1.68 fold change and the “NFKB1 fold induction respect to basal conditions” value [3] was 2.04.

For `CCCCCCCCCCCCCCCC(=O)N[C@@H](CCC(=O)O)C(=O)N[C@@H](CCC(=O)O)C(=O)N[C@@H](CCSC)C(=O)N[C@@H](CCC(N)=O)C(=O)N[C@@H](CCCNC(=N)N)C(=O)N[C@@H](CCCNC(=N)N)C(=O)N[C@@H](C)C(=O)N[C@@H](CC(N)=O)C(N)=O` [PEP-28, Palm-Glu-Glu-Met-Gln-Arg-Arg-Ala-Asn-NH2] (Palmitoyl-EEMQRRAN-NH2), the “S. epidermidis (%), normalized percentage respect to basal conditions” value [1] was 39.68% and the “NFKB1 fold induction respect to basal conditions” value [3] was 2.65.

With “Ac-EEMQRRG-NH2 [PEP-38, Ac-Glu-Glu-Met-Gln-Arg-Arg-Gly-NH2]” the “S. epidermidis (%), normalized percentage respect to basal conditions” value [1] was 49.00% and the “NFKB1 fold induction respect to basal conditions” value [3] was 2.40.

With “Ac-EEMQRRGD-NH2 [PEP-16, Ac-Glu-Glu-Met-Gln-Arg-Arg-Gly-Asp-NH2]” the “S. epidermidis (%), normalized percentage respect to basal conditions” value [1] was 51.11% and the “NFKB1 fold induction respect to basal conditions” value [3] was 2.47.

With “Ac-EEMDRRA-NH2 [PEP-42, Ac-Glu-Glu-Met-Asp-Arg-Arg-Ala-NH2]” the “S. epidermidis (%), normalized percentage respect to basal conditions” value [1] was 12.36% and the “NFKB1 fold induction respect to basal conditions” value [3] was 2.70.

For “Ac-EEMQRRED-NH2 [PEP-23, Ac-Glu-Glu-Met-Gln-Arg-Arg-Glu-Asp-NH2]”, the “S. epidermidis (%), normalized percentage respect to basal conditions” value [1] was 20.10%, the “CLDN1 fold induction respect to basal conditions” value [4] was 2.58 and the “NFKB1 fold induction respect to basal conditions” value [3] was 2.58.

With “Ac-EEMQRRSD-NH2 [PEP-15, Ac-Glu-Glu-Met-Gln-Arg-Arg-Ser-Asp-NH2]” the “S. epidermidis (%), normalized percentage respect to basal conditions” value [1] was 15.10% and the “NFKB1 fold induction respect to basal conditions” value [3] was 2.57.

Source: US20200002377A1, “COMPOUNDS USEFUL FOR THE TREATMENT AND/OR CARE OF THE SKIN, HAIR, NAILS AND/OR MUCOUS MEMBRANES” (LUBRIZOL ADVANCED MATERIALS, INC., priority 2016, published 2020)
